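Interpolation was linear, between the two tested concentrations surrounding the appropriate level; five concentrations were tested over 48 hours in 96-well plates. Here, GI50 denotes the concentration required for 50% inhibition of growth.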 Active and inactive are the calls of the source. Rule as the data show it: active = GI50 up to about 1.1 µM and inactive = higher.
Tests used:
Assay in all cases: NCI tumour cell line growth inhibition, 48 h
NCI-H23 = tested on: NCI-H23
HCC 2998 = tested on: HCC 2998
SN12C = tested on: SN12C
NCI-H226 = tested on: NCI-H226
NCI-H522 = tested on: NCI-H522
Malme-3M = tested on: Malme-3M
HOP-62 = tested on: HOP-62
UACC-62 = tested on: UACC-62
SNB-75 = tested on: SNB-75
OVCAR-4 = tested on: OVCAR-4
KM12 = tested on: KM12
SK-MEL-28 = tested on: SK-MEL-28
ACHN = tested on: ACHN
IGROV-1 = tested on: IGROV-1
TK-10 = tested on: TK-10
MOLT-4 = tested on: MOLT-4
U-251 = tested on: U-251
UO-31 = tested on: UO-31
A498 = tested on: A498
RXF 393 = tested on: RXF 393
HCT-15 = tested on: HCT-15
OVCAR-8 = tested on: OVCAR-8
UACC-257 = tested on: UACC-257
SK-MEL-2 = tested on: SK-MEL-2
KM-20L2 = tested on: KM-20L2
SK-OV-3 = tested on: SK-OV-3
SW-620 = tested on: SW-620
LXFL 529 = tested on: LXFL 529
NCI-H460 = tested on: NCI-H460
SNB-19 = tested on: SNB-19
OVCAR-5 = tested on: OVCAR-5
HCT-116 = tested on: HCT-116
COLO 205 = tested on: COLO 205
CAKI-1 = tested on: CAKI-1
DMS-114 = tested on: DMS-114
LOX IMVI = tested on: LOX IMVI
M14 = tested on: M14
HL-60 = tested on: HL-60
DMS-273 = tested on: DMS-273
M19-MEL = tested on: M19-MEL
HT-29 = tested on: HT-29
HOP-18 = tested on: HOP-18
EKVX = tested on: EKVX
786-0 = tested on: 786-0
A549 = tested on: A549
RPMI-8226 = tested on: RPMI-8226
SF-295 = tested on: SF-295
DLD-1 = tested on: DLD-1
SF-268 = tested on: SF-268
SR = tested on: SR
CCRF-CEM = tested on: CCRF-CEM
SK-MEL-5 = tested on: SK-MEL-5
OVCAR-3 = tested on: OVCAR-3
K562 = tested on: K562
SF-539 = tested on: SF-539
SNB-78 = tested on: SNB-78
HOP-92 = tested on: HOP-92

Measured: GI50

CCN(CC)C(=O)c1cccc2c(OC)ccc(OC)c12
inactive: NCI-H23 > 100 µM | HCC 2998 > 100 µM | SN12C > 100 µM | NCI-H226 > 100 µM | NCI-H522 > 100 µM | Malme-3M > 100 µM | HOP-62 > 100 µM | UACC-62 > 100 µM | SNB-75 > 100 µM | OVCAR-4 > 100 µM | KM12 > 100 µM | SK-MEL-28 > 100 µM | ACHN > 100 µM | IGROV-1 > 100 µM | TK-10 > 100 µM | MOLT-4 > 100 µM | U-251 > 100 µM | UO-31 > 100 µM | A498 > 100 µM | RXF 393 > 100 µM | OVCAR-8 > 100 µM | UACC-257 > 100 µM | SK-MEL-2 > 100 µM | KM-20L2 > 100 µM | SK-OV-3 > 100 µM | SW-620 > 100 µM | LXFL 529 > 100 µM | NCI-H460 > 100 µM | SNB-19 > 100 µM | OVCAR-5 > 100 µM | HCT-116 > 100 µM | COLO 205 > 100 µM | CAKI-1 > 100 µM | DMS-114 > 100 µM | LOX IMVI > 100 µM | M14 > 100 µM | HL-60 > 100 µM | DMS-273 > 100 µM | M19-MEL > 100 µM | HT-29 > 100 µM | HOP-18 > 100 µM | EKVX > 100 µM | 786-0 > 100 µM | A549 > 100 µM | RPMI-8226 > 100 µM | SF-295 > 100 µM | DLD-1 > 100 µM | SF-268 > 100 µM | SR > 100 µM | CCRF-CEM > 100 µM | SK-MEL-5 > 100 µM | OVCAR-3 > 100 µM | K562 > 100 µM
> 100 µM: HCT-15

COc1ccccc1NC(=O)CC(=O)NNCC(=O)Nc1nc(-c2ccccc2)cs1
inactive: NCI-H23 > 100 µM | HCC 2998 4.1 µM | SN12C > 100 µM | NCI-H226 40.6 µM | NCI-H522 > 100 µM | HOP-62 > 100 µM | UACC-62 > 100 µM | SNB-75 > 100 µM | OVCAR-4 > 100 µM | KM12 > 100 µM | SK-MEL-28 > 100 µM | IGROV-1 > 100 µM | TK-10 > 100 µM | MOLT-4 > 100 µM | U-251 > 100 µM | RXF 393 > 100 µM | OVCAR-8 > 100 µM | SF-539 > 100 µM | KM-20L2 > 100 µM | SK-OV-3 > 100 µM | SW-620 > 100 µM | LXFL 529 > 100 µM | NCI-H460 > 100 µM | SNB-19 > 100 µM | HCT-116 > 100 µM | COLO 205 > 100 µM | DMS-114 > 100 µM | LOX IMVI > 100 µM | M14 > 100 µM | HL-60 > 100 µM | DMS-273 > 100 µM | M19-MEL > 100 µM | HT-29 > 100 µM | HOP-18 > 100 µM | SNB-78 > 100 µM | EKVX > 100 µM | 786-0 > 100 µM | A549 > 100 µM | RPMI-8226 > 100 µM | SF-295 > 100 µM | DLD-1 > 100 µM | SF-268 > 100 µM | CCRF-CEM > 100 µM | SK-MEL-5 > 100 µM | OVCAR-3 > 100 µM | K562 > 100 µM

Nc1ncnc2c1ncn2C1OC(CSC(F)(F)F)C(O)C1O (centres undefined)
> 100 µM: HCT-15
inactive: NCI-H23 > 100 µM | HCC 2998 > 100 µM | SN12C > 100 µM | NCI-H226 > 100 µM | NCI-H522 > 100 µM | Malme-3M > 100 µM | HOP-62 > 100 µM | UACC-62 > 100 µM | SNB-75 > 100 µM | OVCAR-4 > 100 µM | KM12 > 100 µM | SK-MEL-28 > 100 µM | ACHN > 100 µM | IGROV-1 > 100 µM | TK-10 > 100 µM | MOLT-4 > 100 µM | U-251 > 100 µM | UO-31 > 100 µM | A498 > 100 µM | OVCAR-8 > 100 µM | UACC-257 > 100 µM | SK-MEL-2 > 100 µM | SF-539 > 100 µM | KM-20L2 > 100 µM | SK-OV-3 > 100 µM | SW-620 > 100 µM | LXFL 529 > 100 µM | NCI-H460 > 100 µM | OVCAR-5 > 100 µM | HCT-116 > 100 µM | COLO 205 > 100 µM | HOP-92 > 100 µM | CAKI-1 > 100 µM | DMS-114 > 100 µM | LOX IMVI > 100 µM | M14 > 100 µM | HL-60 > 100 µM | DMS-273 > 100 µM | M19-MEL > 100 µM | HT-29 > 100 µM | HOP-18 > 100 µM | SNB-78 > 100 µM | EKVX > 100 µM | 786-0 > 100 µM | A549 > 100 µM | RPMI-8226 > 100 µM | SF-295 > 100 µM | DLD-1 > 100 µM | SF-268 > 100 µM | CCRF-CEM > 100 µM | SK-MEL-5 > 100 µM | OVCAR-3 > 100 µM | K562 > 100 µM
